Experiment in all cases: NCI anticancer screen, dose series, 48 h
For assay [1], the system named is NCI-H23 lung.
The test system of assay [2] is LOX IMVI melanoma.
The test system of assay [3] is NCI-H460 lung.
Assay [4] deals with CAKI-1 renal.
The subject of assay [5] is U251 CNS.
Assay [6] relates to OVCAR-4 ovarian.
Assay [7] has as its system SK-MEL-5 melanoma.
The test system of assay [8] is SF-539 CNS.
Assay [9] deals with CCRF-CEM leukemia.
Assay [10] concerns MOLT-4 leukemia.

Each structure is given as a SMILES string. Values joined by “and” are separate entries in the source; they are usually repeats but may differ in a detail not shown here. Equal entries are not always repeated.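 Following 48 hours of exposure in 96-well plates, responses at five concentrations were used to interpolate endpoints linearly. Here, GI50 denotes the concentration required for 50% inhibition of growth. The concentration for full growth arrest is given as TGI.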

On to `COC(=O)/C(=C/c1ccc(OC)cc1)C(C(=O)O)=C1CCCCC1`, for which the TGI in assay [1], in [2], in assay [3], in assay [4], in assay [5] and in [6] was over 100 µM in each case. The TGI in [7], in [8], in [9] and in assay [10] was over 100 µM each time.
As to `COc1cc2c3c(c1OC)C(=O)C=C3N(S(=O)(=O)c1ccc(C)cc1)CC2`, the TGI in assay [1], in assay [2], in assay [3], in assay [4], in assay [5] and in assay [6] was over 100 µM each time. Besides, the TGI in assay [7], in [8], in assay [9] and in assay [10] was over 100 µM throughout.
As to `COc1ccc(-c2nn3ncccc3c2-c2ccnc(Nc3ccc4c(c3)OCCO4)n2)cc1`, the GI50 in [1] is 9.22 µM; in [2], 3.65 µM; in assay [3] it was 8.74 µM; in assay [4], 2.7 µM; in assay [5], 14.3 µM; in assay [6], 9.19 µM. Also, the GI50 is 6.26 µM in [7], 13 µM in assay [8], 6.07 µM in assay [9] and 14.2 µM in assay [10]. In addition, the TGI in [1] is over 25 µM; in assay [2] it was over 25 µM; in assay [3], over 25 µM; in assay [4], over 24.1 µM; in [5] it was over 25 µM; in [6], over 25 µM. Besides, the TGI in assay [7], in assay [8], in assay [9] and in assay [10] was over 25 µM in each case.
As for `O=c1[nH]c(=O)n(C2CC(O)C(CO)O2)cc1COCC(F)(F)F` (centres undefined), the TGI in [1], in assay [2], in assay [3], in assay [4], in [5] and in assay [6] was over 100 µM each time. For the same compound, the TGI in [7], in assay [8], in [9] and in assay [10] was over 100 µM in each case.
For the compound `Cn1cc(C2=C(c3ccccc3C(F)(F)F)C(=O)NC2=O)c2ccccc21`, the GI50 in assay [1] is 11.9 µM; in assay [2] it was 8.46 µM; in assay [3], 9.18 µM; in assay [4], 6.6 µM; in assay [5], 7.06 µM; in [6], 9.64 µM. Further, the GI50 is 4.74 µM in assay [7], 11.1 µM in assay [8], 4.86 µM in [9] and 5.89 µM in [10]. Also, the TGI in assay [1], in assay [2], in [3], in [4], in [5] and in assay [6] was over 25 µM in each case. In addition, the TGI was 13 µM in assay [7], over 25 µM in assay [8], over 25 µM in assay [9] and over 22.6 µM in [10].
Regarding `CCOc1ccc(C(C)=O)cc1NC(=O)c1cccc(-c2nnn(CC)n2)c1`, the GI50 is 0.646 µM in assay [1]; 0.59 µM in [2]; 0.423 µM in assay [3]; 0.939 µM in assay [4]; 0.458 µM in assay [5]; 4.96 µM in assay [6]. Further, the GI50 is 0.465 µM in assay [7], 0.346 µM in assay [8], 0.937 µM in assay [9] and 0.682 µM in [10]. Besides, the TGI in [1] is 19 µM; in [2] it was 70.2 µM; in [3], over 100 µM; in assay [4] it was over 100 µM; in assay [5] it was 16.7 µM; in assay [6], over 100 µM. Further, the TGI is 16.5 µM in assay [7], 3.54 µM in assay [8], over 100 µM in [9] and over 100 µM in assay [10].
Consider `COc1ccc2nc3cccc([N+](=O)[O-])c3c(NCCNCCN(C)C)c2c1`, for which the GI50 was 1.72 µM in assay [1]; 0.0652 µM in [2]; 0.0253 µM in [3]; 0.0797 µM in assay [4]; 0.0376 µM in [5]; 0.0199 µM in [6]. Moreover, the GI50 in [7] was 0.0325 µM; in assay [8], 0.199 µM; in assay [9], 0.0384 µM; in assay [10] it was 0.022 µM. Besides, the TGI is 5.26 µM in assay [1]; 0.305 µM in assay [2]; 0.0967 µM in assay [3]; 0.616 µM in assay [4]; 0.404 µM in assay [5]; 0.0509 µM in [6]. Also, the TGI in assay [7] is 0.13 µM; in assay [8], 0.429 µM; in assay [9], 0.29 µM; in assay [10], 0.192 µM.
Regarding `CNCCCNc1c2ccccc2nc2cccc([N+](=O)[O-])c12`, the TGI in assay [1] is 0.00564 µM; in assay [2], 0.016 µM; in assay [3] it was 0.00221 µM and 0.0103 µM; in assay [4], 0.0271 µM; in assay [5] it was 0.0519 µM; in assay [6], 0.00543 µM. Further, the TGI in assay [7] was 0.00982 µM; in [8] it was 0.0163 µM and 0.0172 µM; in assay [9], 0.0143 µM.
`COc1cccc2nc3c(C(=O)NCCN(C)C)cccc3nc12`: the TGI in assay [1] is 27.2 µM; in assay [2] it was 14.1 µM; in assay [3], 21 µM; in assay [4], over 100 µM; in assay [5], 59.1 µM; in [6], 26.7 µM. In addition, the TGI in assay [7] is 36.8 µM; in assay [8] it was 17.1 µM; in assay [9] it was 25.7 µM; in assay [10], 15.1 µM.
